According to patent US20240148745A1, “COMPOUNDS FOR USE IN PROGRESSIVE MULTIPLE SCLEROSIS” (FONDAZIONE CENTRO SAN RAFFAELE, priority 2021, published 2024):
Where a name gives a salt, the structure may show the parent alone.

Assays:
[1] = test system: rat oligodendrocyte progenitor CG4 line; assay: Differentiation assay on rat oligodendrocyte progenitor CG4 line (HCS, mCherry+); format: cell-based; details: 1 μM; for CG4 differentiation compared with 9cis-RA positive control: secondary screen of 49 selected compounds, 5 days
Text: Primary validation on CG4 line toxicity and differentiation. An innovative OPC line was developed for fast and reliable high content screening (HCS) of small compounds inducing oligodendrocyte differentiation. The line was genetically engineered by lentiviral transduction of rat CG4 cells (PubMed=1613821; DOI=10.1002/jnr.490310125; Louis J. C., Magal E., Muir D., Manthorpe M., Varon S.; CG-4, a new bipotential glial cell line from rat brain, is capable of differentiating in vitro into either mature oligodendrocytes or type-2 astrocytes. J. Neurosci. Res. 31:193-204(1992) to express mCherry fluorescent reporter (Evercooren, Anne & Avellana-Adalid, V. & Vitry, Sandrine & Nait-Oumesmar, Brahim & Lachapelle, Francois. (1997). Expansion of Oligodendrocyte Progenitors for Myelin Repair. 10.1007/978-1-4615-5949-8_21) in mature oligodendrocytes only, and EGFP at all stage of the oligodendroglial lineage: both the generation of mature oligodendrocytes (wmNl-mCherry) and the morphological changes associated with differentiation (CMV-EGFP) can be therefore monitored in a single assay. mCherry expression occurred only in O4+/GalC+ differentiated oligodendrocytes and GFP was ubiquitously expressed at all developmental stages. The line so obtained was validated using compounds with well-established effects on oligodendrocyte differentiation (cAMP and T3). Cell-based assay was standardized on the HCS platform (ArrayScanXTI, Brain and Spine Institute (Paris), validating the pro-differentiation effects of clemastine^27 and 9cis-retinoic acid.^28 For HCS validation of 274 compounds identified through in silico screen, double-fluo CG4 line cells were plated in 96 well-plates, 6500 cells/cm^2 and left for 24 h in proliferation. The other day, compounds were added (1 μM) for next 5 days of differentiation, with ⅔ medium changed after 3 days. 9-cis Retinoic Acid (9cis-RA; […]) served as a positive control, negative controls were basal (N1) medium and vehicle (basal+0.1% DMSO). Each compound was tested in triplicate and were imaged with ArrayScanXTI system (35 fields/well) after 5 days of differentiation.
FIG. 4 provides a schematic representation of High Content Screening (HCS) validation of the 274 compounds identified through in silico screening using CG4 line. […] In addition, the whole short list of 160 non-toxic compounds were screened using the CG4 high content phenotypic assay to further confirm the data from primary screening and to potentially select additional compounds with pro-myelinating activities. From this screening of the short list, 49 hit compounds were identified that increase differentiation either of CG4 cells or primary OPCs (FIG. 6).

rat primary OPC cultures = assay: Differentiation of rat primary OPC into MBP+ OLs; format: cell-based; details: 96 h, 4 days of differentiation, read-out: MBP+ differentiation (MBP+/SOX10+ OLs plus compounds / plus basal medium)
Method: Secondary validation on primary rat OPC differentiation. Re-validation of the best performing compounds promoting OPC differentiation (fold change >1.5) was performed on primary rat OPC cultures in 96 well-plate run in triplicates by triple immunolabeling for CNPase, MBP and SOX10 as a readout. Compounds at […] were added for 4 days of differentiation and then cell cultures were imaged with ArrayScanXTI platform, number of MBP+OLs were quantified by semi-automated software. Basal medium served as a negative control, 9 cis-RA ([…]) was a positive control.
Re-validation of the 49 compounds selected from the short list (160 compounds) using rat primary OPC cultures (compounds tested in triplicates in 3 independent experiments. The secondary validation screen of these compounds performed on rat primary OPC cultures selected 17 best lead compounds with a pro-differentiation activity (MBP+/SOX10+OLs plus compounds/MBP+SOX10+ plus basal medium fold increase) induced a strong differentiation into MBP+OLs (fold increase >1.6). Results are shown in FIG. 7.

[2] = test system: murine cortical neurons (14 DIV); assay: NMDA-mediated neuroprotective assay (CCK8 viability); format: cell-based, mouse; details: 1 μM, 3 h pre-treatment, NMDA 8 μM 24 h, p<0.05
Method: To assess neuroprotective activity of 160 selected non-toxic compounds on primary murine cortical neurons, obtained as described in the previous paragraph, ([…]), cultures were pre-treated with 1 μM compounds for either 3 or 24 hours, followed by 24 hours chronic stimulation with NMDA (8 μM) to induce neuronal damage. Each test plate included: a negative control (untreated), vehicle-treated control (0.02% vol/vol DMSO), a positive neurotoxic control—staurosporine 0.1 μM, a stressor—NMDA 8 μM, a positive neuroprotective control—NAC 300 μM, and a combination of stressor +neuroprotective molecule (NMDA+NAC). Cell viability was measured with Cell Counting Kit-8 assay compared to NMDA-treated control.
The potential neuroprotective activity of 160 selected non-toxic compounds was evaluated on murine cortical neurons (14 DIV) with either 3 h (FIG. 13) or 24 h compounds pre-treatment (FIG. 14). In assay with 3 h pre-treatment, 17 compounds were identified as potential NMDA-neuroprotective hits (marked with black asterisk in FIG. 13, stat. significant at p<0.05, Kruskal-Wallis test with post-hoc two-stage linear step-up procedure of Benjamini, Krieger and Yekutieli multiple comparison correction).

mouse cortical neurons = assay: Morphological integrity evaluation, NMDA 8 μM (MAP2 neurite length and branching); format: cell-based; details: 3 h pre-treatment, NMDA 8 μM 24 h; Z>0.5 criteria
Method: Apart of viability/metabolic readout in NMDA-mediated neurotoxicity assay, a neuronal structural integrity was evaluated by MAP2 staining. Mouse cortical neurons (14 DIV) cultured in MW96 plates were fixed with 4% paraformaldehyde (PFA). Fixed cells were incubated with blocking solution (PBS 1×, donkey serum 5%, Triton 0.1%) for 1-hour, primary antibody (rabbit α-MAP2, 1:250, Millipore) was applied in the same solution overnight at +4° C. […] Nuclei were stained with 4′-6-diamidino-2-phenylindole (DAPI, Roche). Microscopy was performed using ArrayScan™XTI (ThermoFisher) imaging platform. 15 images per well were acquired and analyzed by CellProfiler. Total neurite length and the total number of non-trunk branches were analyzed. Total neurite length and the total number of branching were evaluated from 15 images/well, each compound or control was tested in triplicates. The total neurite length and total number of branches were converted to a standardized Z-score using formula: Xij=((Xij−μ)/σ), where xij is the raw measurement of the compound located in well (i, j), and μ and σ are, respectively, the mean and the standard deviation of all measurements of the plate.^31
The morphological integrity of mouse cortical neurons upon chronic 24 h NMDA (8 μM) exposure with compounds pre-treatment (3 h) in preventive regimen was evaluated. Control (basal), DMSO, N-acetylcysteine (NAC) served as positive controls, while staurosporine and NMDA were negative controls.

SMILES | CG4 differentiation compared with 9cis-RA positive control [1] | fold induction at 1 µM (rat primary OPC cultures) | neuroprotection of viability/metabolic activity against NMDA [2] | other results
COc1cc(OC)nc(O[C@H](C(=O)O)C(OC)(c2ccccc2)c2ccccc2)n1 | promoting differentiation significantly higher than 9cis-RA positive control | > 1.6 |  | 
Nc1ncnc2nc[nH]c12 [Adenine] |  |  | hit compounds | preservation of neurite length and network integrity (branching) (mouse cortical neurons): preserved both neurite length and the network integrity (branching)
CN1[C@@H]2CC[C@H]1C[C@@H](OC(c1ccccc1)c1ccccc1)C2 [BENZATROPINE] | promoting differentiation significantly higher than 9cis-RA positive control | > 1.6 |  | CG4 differentiation, fold increase relative to control [1]: over 1.5 fold
CCOC(=O)c1cnc2c(cnn2CC)c1NN=C(C)C [Etazolate] |  | > 1.6 |  | 
CC1(C)O[C@@H]2C[C@H]3[C@@H]4C[C@H](F)C5=CC(=O)C=C[C@]5(C)[C@@]4(F)[C@@H](O)C[C@]3(C)[C@]2(C(=O)CO)O1 [Fluocinolone acetonide, Fluocinolone Acetonide] |  |  | hit compounds | 
CN1[C@@H]2CC[C@H]1C[C@@H](OC(=O)[C@H](CO)c1ccccc1)C2 [Hyoscyamine] |  |  | hit compounds | preservation of neurite length and network integrity (branching) (mouse cortical neurons): preserved both neurite length and the network integrity (branching)
N[C@@H](CO)C(=O)O [L-Serine] |  |  | hit compounds | 
CNC(=O)c1cccc2cc(Oc3ccnc4cc(OCC5(N)CC5)c(OC)cc34)ccc12 [LUCITANIB] | promoting differentiation significantly higher than 9cis-RA positive control | > 1.6 |  | 
COCCNCc1ccc(-c2cc3nccc(Oc4ccc(NC(=S)NC(=O)Cc5ccc(F)cc5)cc4F)c3s2)nc1 [MGCD-265] |  | > 1.6 |  | 
CN(C(=O)/C=C/c1ccoc1)[C@@H]1CC[C@@]2(O)[C@H]3Cc4ccc(O)c5c4[C@@]2(CCN3CC2CC2)[C@H]1O5 [Nalfurafine hydrochloride] |  |  | hit compounds | 
FC(F)(F)c1ccc(CNc2ccc(Cc3c[nH]c4ncc(Cl)cc34)cn2)cn1 [PLX-3397] | promoting differentiation significantly higher than 9cis-RA positive control | > 1.6 |  | 
Cn1c(=O)c(Oc2ccc(F)cc2F)cc2cnc(NC(CCO)CCO)nc21 [Pamapimod] |  |  | hit compounds | 
CC(C)(C)c1cc(NC(=O)Nc2ccc(-c3cn4c(n3)sc3cc(OCCN5CCOCC5)ccc34)cc2)no1 [Quizartinib] | promoting differentiation significantly higher than 9cis-RA positive control | > 1.6 |  | 
NC(=O)[C@@H]1CC[C@H](c2ccc(OCc3ccccc3F)cc2)N1 [Raxatrigine] |  |  | hit compounds | preservation of neurite length and network integrity (branching) (mouse cortical neurons): preserved both neurite length and the network integrity (branching)
O=C(Nc1ccccc1Br)N[C@@H]1CCN(c2ccc(C(F)(F)F)cn2)C1 [SB-705498] |  |  | hit compounds | 
Cc1[nH]c(/C=C2\C(=O)Nc3ccc(F)cc32)c(C)c1C(=O)NC[C@H](O)CN1CCOCC1 [SU14813] |  | > 1.6 |  | 
